The results in this text go back to patent US8119661B2, “Piperidine derivatives and their use as muscarinic receptor modulators” (AstraZeneca AB, priority 2007, dated 2012).

The EC50 is the concentration needed to bring the measured effect to its halfway point.

In assay [1] the target is T1, cloned human M2 receptor (Homo sapiens, UniProt P08172).
T1 construct: purchased Perkin-Elmer RBHM2M; host or cells: CHO cell membranes
T1 sequence (P08172 1-466): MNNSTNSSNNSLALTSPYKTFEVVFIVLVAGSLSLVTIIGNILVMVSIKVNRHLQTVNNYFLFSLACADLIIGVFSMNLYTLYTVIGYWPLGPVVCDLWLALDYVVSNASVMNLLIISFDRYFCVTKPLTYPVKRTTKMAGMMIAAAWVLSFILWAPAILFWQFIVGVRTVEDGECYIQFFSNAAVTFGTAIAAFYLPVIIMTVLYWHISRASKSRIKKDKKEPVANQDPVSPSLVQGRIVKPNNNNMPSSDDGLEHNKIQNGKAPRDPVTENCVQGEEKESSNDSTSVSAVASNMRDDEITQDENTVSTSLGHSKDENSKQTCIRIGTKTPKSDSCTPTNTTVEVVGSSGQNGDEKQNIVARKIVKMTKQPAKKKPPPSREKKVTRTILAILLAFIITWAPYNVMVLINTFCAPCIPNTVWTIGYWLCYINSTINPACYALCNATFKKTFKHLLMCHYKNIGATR
Description: hM2 receptor GTPγS binding. In kind it is biochemical. The following applies: CHO membranes expressing hM2, [35S]GTPγS binding. How it is done: Membranes produced from Chinese hamster ovary cells (CHO) expressing the cloned human M2 receptor (human Muscarinic receptor subtype 2, gene bank access NM_000739), are obtained from Perkin-Elmer (RBHM2M). The membranes are thawed at 37° C., passed 3 times through a 23-gauge blunt-end needle, diluted in the GTPγS binding buffer (50 mM Hepes, 20 mM NaOH, 100 mM NaCl, 1 mM EDTA, 5 mM MgCl2, pH 7.4, 100 μM DTT). The EC50, IC50 and Emax of the compounds of the invention are evaluated from 10-point dose-response curves (three fold concentration range) done in 60 μl in 384-well non-specific binding surface plate (Corning). Ten microliters from the dose-response curves plate (5× concentration) are transferred to another 384 well plate containing 25 μl of the following: 5 μg of hM2 membranes, 500 μg of Flashblue beads (Perkin-Elmer) and GDP 25 μM. An additional 15 μl containing 3.3× (60,000 dpm) of GTPγ^35S (0.4 nM final) are added to the wells resulting in a total well volume of 50 μl. Basal and maximal stimulated [^35S]GTPγS binding are determined in absence and presence of 30 μM final of acetylcholine agonist. The membranes/beads mix are pre-incubated for 15 minutes at room temperature with 25 μM GDP prior to distribution in plates (12.5 μM final). The reversal of acetylcholine-induced stimulation (2 μM final) of [^35S]GTPγS binding is used to assay the antagonist properties (IC50) of the compounds. The plates are incubated for 60 minutes at room temperature then centrifuged at 400 rpm for 5 minutes. The radioactivity (cpm) is counted in a Trilux (Perkin-Elmer).
Values of EC50, IC50 and Emax are obtained using sigmoidal fits of a non-linear curve-fitting program (XLfit version 4.2.2 Excel add-in version 4.2.2 build 18 math 1Q version 2.1.2 build 18) of percent stimulated [^35S]GTPγS binding vs. log(molar ligand). All pEC50 and pIC50 values are reported as arithmetic means±standard error of mean of ‘n’ independent experiments.
(In general: GTPγS is a poorly hydrolysed GTP analogue; its binding reports G protein activation.)

In assay [2] the target is T2, hM5 (human Muscarinic receptor subtype 5) (Homo sapiens, UniProt P08912).
T2 construct: expressed in transfected cells; host or cells: CHO cells (Chinese hamster ovary cells, ATCC)
T2 sequence (P08912 1-532): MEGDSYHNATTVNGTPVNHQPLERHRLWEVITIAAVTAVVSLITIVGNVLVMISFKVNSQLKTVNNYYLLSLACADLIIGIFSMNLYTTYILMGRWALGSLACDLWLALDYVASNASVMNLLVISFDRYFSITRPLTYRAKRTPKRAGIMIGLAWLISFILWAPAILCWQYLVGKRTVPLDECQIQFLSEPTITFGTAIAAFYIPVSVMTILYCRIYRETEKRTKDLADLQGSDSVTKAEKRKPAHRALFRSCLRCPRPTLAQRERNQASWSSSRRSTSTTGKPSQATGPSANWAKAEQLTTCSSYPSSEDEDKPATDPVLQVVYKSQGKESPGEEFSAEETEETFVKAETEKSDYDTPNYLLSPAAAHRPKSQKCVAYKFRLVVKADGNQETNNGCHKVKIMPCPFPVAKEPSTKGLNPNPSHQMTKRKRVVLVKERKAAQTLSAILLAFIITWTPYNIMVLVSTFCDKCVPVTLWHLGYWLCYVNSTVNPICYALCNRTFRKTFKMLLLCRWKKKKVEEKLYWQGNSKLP
Put plainly: Human M5 calcium mobilization FLIPR assay. In kind it is cell-based. To be noted: CHO cells expressing hM5, intracellular Ca2+ release. As for the experimental part:
The compound activity in the present invention (EC50 or IC50) is measured using a 384 plate-based imaging assay that monitors drug induced intracellular Ca^2+ release in whole cells. Activation of hM1 (human Muscarinic receptor subtype 1, gene bank access NM_000738), rM1 (rat Muscarinic receptor subtype 1, gene bank access NM_080773), hM3 (human Muscarinic receptor subtype 3, gene bank access NM_000740NM_000740) and hM5 (human Muscarinic receptor subtype 5, gene bank access NM_0121258), receptors expressed in CHO cells (Chinese hamster ovary cells, ATCC) is quantified in a Molecular Devices FLIPR II™ instrument as an increase in fluorescent signal. Inhibition of hM3 and hM5 by compounds is determined by the decrease in fluorescent signal in response to 2 nM acetylcholine activation.
Prior to experiment, the cell culture medium is removed from the plates by inversion. […] Plates are incubated at 37° C. for 60 minutes prior to start the experiment. The incubation is terminated by washing the cells four times in assay buffer, leaving a residual 25 μl buffer per well. Cell plates are then transferred to the FLIPR, ready for compound additions.
The day of experiment, acetylcholine and compounds are diluted in assay buffer in three-fold concentration range (10 points serial dilution) for addition by FLIPR instrument. For all calcium assays, a baseline reading is taken for 10 seconds followed by the addition of 12.5 μl of compounds, resulting in a total well volume of 37.5 μl. Data is collected every second for 60 pictures and then every 6 seconds for 20 pictures prior to the addition of agonist. For hM3 and hM5, before agonist addition, a second baseline reading is taken for 10 seconds followed by the addition of 12.5 μl of agonist or buffer, producing a final volume of 50 μl. After agonist stimulation, the FLIPR continues to collect data every second for 60 pictures and then every 6 seconds for 20 pictures. The fluorescence emission is read using filter 1 (emission 510-570 nm) by the FLIPR on board CCD camera.
Calcium mobilization output data are calculated as the maximal relative fluorescence unit (RFU) minus the minimal value for both compound and agonist reading frame (except for hM1 and rM1 using only the maximal RFU). Data are analyzed using sigmoidal fits of a non-linear curve-fitting program (XLfit version 4.2.2 Excel add-in version 4.2.2 build 18 math 1Q version 2.1.2 build 18). All pEC50 and pIC50 values are reported as arithmetic means±standard error of mean of ‘n’ independent experiments.
(A change in cytosolic calcium serves as a functional read-out for many receptors and channels.)

Bounds are passed on as bounds.

As to `CCOC(=O)N1CCC(C)(N2CCC(N3C(=O)N[C@@H]4CCCC[C@H]43)CC2)CC1` [Example 04, Ethyl 4-[4-[(3aR,7aR)-2-oxo-3a,4,5,6,7,7a-hexahydro-3H-benzoimidazol-1-yl]-1-piperidyl]-4-methyl-piperidine-1-carboxylate], the EC50 worked out at 0.48 µM in assay [1] and 0.586 µM in assay [2].

As to `CC(C)OC(=O)N1CCC(C)(N2CCC(N3C(=O)N[C@@H]4CCCC[C@H]43)CC2)CC1` [Example 05, Propan-2-yl 4-[4-[(3aR,7aR)-2-oxo-3a,4,5,6,7,7a-hexahydro-3H-benzoimidazol-1-yl]-1-piperidyl]-4-methyl-piperidine-1-carboxylate], the results for the half-maximal effective concentration (EC50) in assay [1] and in assay [2] were greater than 14 µM and greater than 49.2 µM, respectively.

Consider `CC1(N2CCC(N3C(=O)N[C@@H]4CCCC[C@H]43)CC2)CCN(C(=O)C2CC2)CC1` [Example 06, (3aR,7aR)-1-[1-[1-(cyclopropanecarbonyl)-4-methyl-4-piperidyl]-4-piperidyl]-3a,4,5,6,7,7a-hexahydro-3H-benzoimidazol-2-one], for which the EC50 was greater than 30 µM in assay [1] and greater than 49.2 µM in assay [2].

`CC(C)OC(=O)N1CCC(C)(N2CCC(N3C(=O)C[C@H]4CCCC[C@@H]43)CC2)CC1` [Example 14, Propan-2-yl 4-[4-[(3aR,7aS)-2-oxo-3a,4,5,6,7,7a-hexahydro-3H-indol-1-yl]-1-piperidyl]-4-methyl-piperidine-1-carboxylate]: the figures for the EC50 in assay [1] and in assay [2] were greater than 30 µM and greater than 40 µM, respectively.

With `CC1(N2CCC(N3C(=O)C[C@H]4CCCC[C@@H]43)CC2)CCN(C(=O)C2CC2)CC1` [Example 15, (3aR,7aS)-1-[1-[1-(cyclopropanecarbonyl)-4-methyl-4-piperidyl]-4-piperidyl]-3a,4,5,6,7,7a-hexahydro-3H-indol-2-one], the EC50 in assay [1] was greater than 15 µM; in assay [2] it was greater than 40 µM.

Consider `CC#CCOC(=O)N1CCC(C)(N2CCC(N3C(=O)N[C@H]4CCCC[C@@H]43)CC2)CC1` [Example 16, But-2-ynyl 4-[4-[(3aS,7aS)-2-oxo-3a,4,5,6,7,7a-hexahydro-3H-benzimidazol-1-yl]-1-piperidyl]-4-methyl-piperidine-1-carboxylate], for which the figures for the concentration giving a half-maximal response (EC50) in assay [1] and in assay [2] were 0.121 µM and greater than 40 µM, respectively.

As for `CCC(=O)N1CCC(C)(N2CCC(N3C(=O)N[C@H]4CCCC[C@@H]43)CC2)CC1` [Example 18, (3aS,7aS)-3-[1-(4-methyl-1-propanoyl-4-piperidyl)-4-piperidyl]-3a,4,5,6,7,7a-hexahydro-1H-benzimidazol-2-one], the EC50 in assay [1] is 2.34 µM; in assay [2] it was greater than 40 µM.
